Among the data in US20250171437A1 (Agios Pharmaceuticals,Inc., priority 2022, published 2025) are AC50 values, retold here.

Some results are limits rather than exact numbers.

The target of one experiment is T1, human PAH with the R408W mutation (A375 R408W cells) (Homo sapiens, UniProt P00439, R408W).
T1 construct: expressed in transfected cells
T1 sequence (P00439 1-452 R408W): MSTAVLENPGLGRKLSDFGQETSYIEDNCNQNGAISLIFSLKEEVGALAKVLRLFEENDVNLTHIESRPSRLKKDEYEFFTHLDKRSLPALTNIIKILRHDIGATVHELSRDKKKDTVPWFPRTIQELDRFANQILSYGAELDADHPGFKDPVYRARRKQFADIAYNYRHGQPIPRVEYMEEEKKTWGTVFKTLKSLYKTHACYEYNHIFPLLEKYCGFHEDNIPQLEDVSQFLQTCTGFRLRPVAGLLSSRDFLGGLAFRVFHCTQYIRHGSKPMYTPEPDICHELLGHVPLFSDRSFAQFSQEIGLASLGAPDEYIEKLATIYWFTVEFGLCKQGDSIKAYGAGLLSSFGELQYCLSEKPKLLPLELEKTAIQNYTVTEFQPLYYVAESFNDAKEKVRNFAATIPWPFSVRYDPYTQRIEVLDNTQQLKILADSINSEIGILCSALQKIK
Description: Cell Based Phenylalanine Flux Assay. As to conditions: A375 R408W cells; 24 hrs with compound, then 20 μM sepiapterin and 800 μM 13C9,15N-Phenylalanine for 4 hours; 13C-Tyrosine by LC-MS; average where tested multiple times. The gist of the method:
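LC-MS quantitation of 13C-tyrosine in media gave AC50 values. Stable A375 R408W PAH cells were preincubated 24 h with compound, then fed 800 μM labelled Phe plus 20 μM sepiapterin for 4 h. Dose curves were 10-point, tested in duplicate, averaged over repeat runs.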
For `CNc1cn2ncc(C(=O)N3CCc4[nH]cnc4[C@H]3c3nc4cc(F)ccc4o3)c2cc1Cl` [Example 205, (S)-(5-chloro-6-(methylamino)pyrazolo[1,5-a]pyridin-3-yl)(4-(5-fluorobenzo[d]oxazol-2-yl)-6,7-dihydro-1H-imidazo[4,5-c]pyridin-5(4H)-yl)methanone], the AC50 was at most 500 nM.
Still for that read-out and setting: next, `Cc1nc(C(=O)N2CCc3[nH]cnc3[C@H]2c2nc3cccc(C)c3o2)n(C)n1` [Example 907, (S)-(1,3-dimethyl-1H-1,2,4-triazol-5-yl)(4-(7-methylbenzo[d]oxazol-2-yl)-6,7-dihydro-1H-imidazo[4,5-c]pyridin-5(4H)-yl)methanone]: 1000 to 5000 nM; `O=C(c1ocnc1C(F)F)N1CCc2[nH]cnc2[C@H]1c1nc2cc(OC(F)(F)F)ccc2o1` [Example 354, (S)-(4-(difluoromethyl)oxazol-5-yl)(4-(5-(trifluoromethoxy)benzo[d]oxazol-2-yl)-6,7-dihydro-1H-imidazo[4,5-c]pyridin-5(4H)-yl)methanone]: at most 500 nM.
Regarding `COc1ccc2oc([C@H]3c4nc[nH]c4CCN3C(=O)c3ocnc3C(F)F)nc2c1` [Example 342, (R)-(4-(difluoromethyl)oxazol-5-yl)(4-(5-methoxybenzo[d]oxazol-2-yl)-6,7-dihydro-1H-imidazo[4,5-c]pyridin-5(4H)-yl)methanone], the AC50 was 500 to 1000 nM.
The same measure, in the same setting: next, `Cn1cnc(-c2nnc(C(=O)N3CCc4[nH]cnc4[C@@H]3c3nc4c(F)ccc(F)c4o3)o2)c1` [Example 818, (R)-(4-(4,7-difluorobenzo[d]oxazol-2-yl)-6,7-dihydro-1H-imidazo[4,5-c]pyridin-5(4H)-yl)(5-(1-methyl-1H-imidazol-4-yl)-1,3,4-oxadiazol-2-yl)methanone]: 1000 to 5000 nM.
The same measure, in the same setting: next, `CC(C)(O)c1nc(C2CC2)c(C(=O)N2CCc3[nH]cnc3[C@@H]2c2nc3cc(F)ccc3o2)o1` [Example 558, (R)-(4-cyclopropyl-2-(2-hydroxypropan-2-yl)oxazol-5-yl)(4-(5-fluorobenzo[d]oxazol-2-yl)-6,7-dihydro-1H-imidazo[4,5-c]pyridin-5(4H)-yl)methanone]: 1000 to 5000 nM; `Cc1cc(C(=O)N2CCc3[nH]cnc3[C@@H]2c2nc3cccc(C)c3o2)n(C)n1` [Example 782, (R)-(1,3-dimethyl-1H-pyrazol-5-yl)(4-(7-methylbenzo[d]oxazol-2-yl)-6,7-dihydro-1H-imidazo[4,5-c]pyridin-5(4H)-yl)methanone]: 500 to 1000 nM; `Cc1cccc2oc([C@@H]3c4nc[nH]c4CCN3C(=O)c3nc(C(F)F)nn3C)nc12` [Example 447, (S)-(3-(difluoromethyl)-1-methyl-1H-1,2,4-triazol-5-yl)(4-(4-methylbenzo[d]oxazol-2-yl)-6,7-dihydro-1H-imidazo[4,5-c]pyridin-5(4H)-yl)methanone]: at most 500 nM.
Still for that read-out and setting: next, `COc1cccc2nc([C@H]3c4nc[nH]c4CCN3C(=O)c3cc(C)nn3C)oc12` [Example 822, (R)-(1,3-dimethyl-1H-pyrazol-5-yl)(4-(7-methoxybenzo[d]oxazol-2-yl)-6,7-dihydro-1H-imidazo[4,5-c]pyridin-5(4H)-yl)methanone]: 1000 to 5000 nM.
As for `COc1ccc(-c2nnc(C(=O)N3CCc4[nH]cnc4[C@H]3c3nc4cc(F)ccc4o3)o2)nc1` [Example 442, (S)-(4-(5-fluorobenzo[d]oxazol-2-yl)-6,7-dihydro-1H-imidazo[4,5-c]pyridin-5(4H)-yl)(5-(5-methoxypyridin-2-yl)-1,3,4-oxadiazol-2-yl)methanone], the AC50 was in the range of 500 to 1000 nM.
Same read-out and setting: next, `O=C(c1ocnc1C(F)F)N1CCc2[nH]cnc2[C@H]1c1nc2cc(F)ccc2o1` [Example 51, (S)-(4-(difluoromethyl)oxazol-5-yl)(4-(5-fluorobenzo[d]oxazol-2-yl)-6,7-dihydro-1H-imidazo[4,5-c]pyridin-5(4H)-yl)methanone]: at most 500 nM; `O=C(c1ocnc1C(F)F)N1CCc2[nH]cnc2[C@H]1c1nc2cc(F)cc(F)c2o1` [Example 309, (S)-(4-(5,7-difluorobenzo[d]oxazol-2-yl)-6,7-dihydro-1H-imidazo[4,5-c]pyridin-5(4H)-yl)(4-(difluoromethyl)oxazol-5-yl)methanone]: at most 500 nM; `Cc1cccc2nc([C@@H]3c4nc[nH]c4CCN3C(=O)c3nc(C(F)F)nn3C)oc12` [Example 613, (S)-(3-(difluoromethyl)-1-methyl-1H-1,2,4-triazol-5-yl)(4-(7-methylbenzo[d]oxazol-2-yl)-6,7-dihydro-1H-imidazo[4,5-c]pyridin-5(4H)-yl)methanone]: at most 500 nM.
Still for that read-out and setting: next, `O=C(c1oc(-c2cncnc2)nc1C(F)F)N1CCc2[nH]cnc2[C@@H]1c1nc2cccc(F)c2o1` [Example 741, (R)-(4-(difluoromethyl)-2-(pyrimidin-5-yl)oxazol-5-yl)(4-(7-fluorobenzo[d]oxazol-2-yl)-6,7-dihydro-1H-imidazo[4,5-c]pyridin-5(4H)-yl)methanone]: at most 500 nM.
Regarding `Cc1cccc2oc([C@@H]3c4nc[nH]c4CCN3C(=O)c3oc(C(C)(C)O)nc3C(F)F)nc12` [Example 361, (S)-(4-(difluoromethyl)-2-(2-hydroxypropan-2-yl)oxazol-5-yl)(4-(4-methylbenzo[d]oxazol-2-yl)-6,7-dihydro-1H-imidazo[4,5-c]pyridin-5(4H)-yl)methanone], the AC50 is at most 500 nM.
Still for that read-out and setting: next, `COc1ccc2oc([C@H]3c4nc[nH]c4CCN3C(=O)c3ccnn3C(F)F)nc2c1` [Example 552, (R)-(1-(difluoromethyl)-1H-pyrazol-5-yl)(4-(5-methoxybenzo[d]oxazol-2-yl)-6,7-dihydro-1H-imidazo[4,5-c]pyridin-5(4H)-yl)methanone]: 1000 to 5000 nM; `O=C(c1oc(C2CC2)nc1C(F)F)N1CCc2[nH]cnc2[C@@H]1c1nc2cc(F)ccc2o1` [Example 54, (R)-(2-cyclopropyl-4-(difluoromethyl)oxazol-5-yl)(4-(5-fluorobenzo[d]oxazol-2-yl)-6,7-dihydro-1H-imidazo[4,5-c]pyridin-5(4H)-yl)methanone]: 500 to 1000 nM; `CN(C)C(C)(C)c1nc(C(F)F)c(C(=O)N2CCc3[nH]cnc3[C@@H]2c2nc3cc(F)ccc3o2)o1` [Example 292, (R)-(4-(difluoromethyl)-2-(2-(dimethylamino)propan-2-yl)oxazol-5-yl)(4-(5-fluorobenzo[d]oxazol-2-yl)-6,7-dihydro-1H-imidazo[4,5-c]pyridin-5(4H)-yl)methanone]: at most 500 nM.
For the compound `COc1cc(F)c2oc([C@@H]3c4nc[nH]c4CCN3C(=O)c3oc(C(C)(C)O)nc3C(F)F)nc2c1` [Example 643, (S)-(4-(difluoromethyl)-2-(2-hydroxypropan-2-yl)oxazol-5-yl)(4-(7-fluoro-5-methoxybenzo[d]oxazol-2-yl)-6,7-dihydro-1H-imidazo[4,5-c]pyridin-5(4H)-yl)methanone], the AC50 was at most 500 nM.
On the same count and under the same terms, next, `CN(C)C(C)(C)c1nc(C(F)F)c(C(=O)N2CCc3[nH]cnc3[C@H]2c2nc3cc(F)ccc3o2)o1` [Example 291, (S)-(4-(difluoromethyl)-2-(2-(dimethylamino)propan-2-yl)oxazol-5-yl)(4-(5-fluorobenzo[d]oxazol-2-yl)-6,7-dihydro-1H-imidazo[4,5-c]pyridin-5(4H)-yl)methanone]: at most 500 nM; `O=C(c1ocnc1C(F)F)N1CCc2[nH]cnc2[C@H]1c1nc2c(F)c(F)ccc2o1` [Example 350, (S)-(4-(4,5-difluorobenzo[d]oxazol-2-yl)-6,7-dihydro-1H-imidazo[4,5-c]pyridin-5(4H)-yl)(4-(difluoromethyl)oxazol-5-yl)methanone]: at most 500 nM.
Consider `Cc1cc(F)c2oc([C@@H]3c4nc[nH]c4CCN3C(=O)c3oc(C(C)(C)O)nc3C(F)F)nc2c1` [Example 499, (S)-(4-(difluoromethyl)-2-(2-hydroxypropan-2-yl)oxazol-5-yl)(4-(7-fluoro-5-methylbenzo[d]oxazol-2-yl)-6,7-dihydro-1H-imidazo[4,5-c]pyridin-5(4H)-yl)methanone], for which the AC50 is at most 500 nM.

Still in this experiment, the particulars now being: A375 cells expressing R408W PAH; 24 hrs with compound, then 20 μM sepiapterin and 800 μM 13C9,15N-Phenylalanine for 4 hours; 13C-Tyrosine by LC-MS; average where tested multiple times.
`O=C(c1cnn2cc(N3CCNCC3)ccc12)N1CCc2[nH]cnc2[C@H]1c1nc2cc(F)ccc2o1` (single isomer, unassigned): the AC50 was at least 5000 nM.
Consider `CC(C)(O)c1ncc(C(=O)N2CCc3[nH]cnc3C2c2nc3ccc(F)cc3o2)o1` (stereo not drawn), for which the concentration at half-maximal activity (AC50) lay within 1000 to 5000 nM.
Regarding `O=C(CCc1cnco1)N1CCc2[nH]cnc2C1c1nc2cccc(F)c2o1` (stereo not drawn), the AC50 fell in the range of 1000 to 5000 nM.
`Cn1cc(-c2ncc(C(=O)N3CCc4[nH]cnc4C3c3nc4cc(F)ccc4o3)o2)cn1` (stereo not drawn): the AC50 was at least 5000 nM.
Still for that read-out and setting: next, `CC(C)(O)c1cc(C(=O)N2CCc3[nH]cnc3C2c2nc3ccc(F)cc3o2)no1` (stereo not drawn): at least 5000 nM; `Cc1nc(C2(O)CCC2)oc1C(=O)N1CCc2[nH]cnc2C1c1nc2cc(F)ccc2o1` (stereo not drawn): 1000 to 5000 nM; `CC(C)(O)c1nc(Br)c(C(=O)N2CCc3[nH]cnc3C2c2nc3cc(F)ccc3o2)s1` (stereo not drawn): 1000 to 5000 nM.
On the same count and under the same terms, the same measure for `O=C(c1nnc(-c2c[nH]nc2C(F)(F)F)o1)N1CCc2[nH]cnc2C1c1nc2cc(F)ccc2o1` (stereo not drawn): at least 5000 nM.
